Results published in the supplement of paper PMC10307832.

Experiments:
Assay in all cases: relative viability (nuclei count vs DMSO), 5 days (fraction); higher = more cells survive
NCI-H1944 = test system: NCI-H1944
How it was run: (§1)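 Lung cancer cell lines in 1536-well plates were dosed by pin tool the day after seeding, either with one drug alone or with a fixed anchor-drug dose plus five library-drug doses (not always all listed) in √10 steps. After 5 days, cells were fixed and their nuclei stained in one step (final 0.05% Triton X-100, 1% formaldehyde, 1 ug/ml Hoechst), then counted on 4× images. Relative viability is the nuclei count in treated wells divided by that in vehicle wells. Values are medians of duplicate plates.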

ChaGo-K-1 = test system: ChaGo-K-1
How it was run: as §1

LC-2-ad = test system: LC-2-ad
How it was run: as §1

NCI-H1793 = test system: NCI-H1793
How it was run: as §1

UMC-11 = test system: UMC-11
How it was run: as §1

NCI-H1734 = test system: NCI-H1734
How it was run: as §1

NCI-H838 = test system: NCI-H838
How it was run: as §1

NCI-H2405 = test system: NCI-H2405
How it was run: as §1

HCC-78 = test system: HCC-78
How it was run: as §1

ABC-1 = test system: ABC-1
How it was run: as §1

EMC-BAC-2 = test system: EMC-BAC-2
How it was run: as §1

HCC-15 = test system: HCC-15
How it was run: as §1

COR-L23 = test system: COR-L23
How it was run: as §1

HCC-366 = test system: HCC-366
How it was run: as §1

HARA = test system: HARA
How it was run: as §1

NCI-H2228 = test system: NCI-H2228
How it was run: as §1

NCI-H2009 = test system: NCI-H2009
How it was run: as §1

NCI-H2023 = test system: NCI-H2023
How it was run: as §1

NCI-H23 = test system: NCI-H23
How it was run: as §1

SK-LU-1 = test system: SK-LU-1
How it was run: as §1

NCI-H2126 = test system: NCI-H2126
How it was run: as §1

A-427 = test system: A-427
How it was run: as §1

NCI-H1993 = test system: NCI-H1993
How it was run: as §1

## O=C(O)c1ccc(-c2c[nH]c3ncc(-c4ccccc4)cc23)cc1C1CCCC1 + CS(=O)(=O)N1CCN(Cc2cc3nc(-c4cccc5[nH]ncc45)nc(N4CCOCC4)c3s2)CC1 [Pictilisib] (partner 1 µM)
NCI-H1944; first compound 0.04 µM
  relative viability: 0.359
NCI-H1944; first compound 0.1265 µM
  relative viability: 0.338
NCI-H1944; first compound 0.4 µM
  relative viability: 0.309
NCI-H1944; first compound 1.265 µM
  relative viability: 0.35
ChaGo-K-1; first compound 0.04 µM
  relative viability: 0.788
ChaGo-K-1; first compound 0.1265 µM
  relative viability: 1.11
ChaGo-K-1; first compound 0.4 µM
  relative viability: 0.649
ChaGo-K-1; first compound 1.265 µM
  relative viability: 0.923
LC-2-ad; first compound 0.04 µM
  relative viability: 0.48
LC-2-ad; first compound 0.1265 µM
  relative viability: 0.46
LC-2-ad; first compound 0.4 µM
  relative viability: 0.462
LC-2-ad; first compound 1.265 µM
  relative viability: 0.351
NCI-H1793; first compound 0.04 µM
  relative viability: 0.387
NCI-H1793; first compound 0.1265 µM
  relative viability: 0.43
NCI-H1793; first compound 0.4 µM
  relative viability: 0.308
NCI-H1793; first compound 1.265 µM
  relative viability: 0.336
UMC-11; first compound 0.04 µM
  relative viability: 0.827
UMC-11; first compound 0.1265 µM
  relative viability: 0.937
UMC-11; first compound 0.4 µM
  relative viability: 0.853
UMC-11; first compound 1.265 µM
  relative viability: 0.775
NCI-H1734; first compound 0.04 µM
  relative viability: 0.429
NCI-H1734; first compound 0.1265 µM
  relative viability: 0.556
NCI-H1734; first compound 0.4 µM
  relative viability: 0.445
NCI-H1734; first compound 1.265 µM
  relative viability: 0.419
NCI-H838; first compound 0.04 µM
  relative viability: 0.423
NCI-H838; first compound 0.1265 µM
  relative viability: 0.57
NCI-H838; first compound 0.4 µM
  relative viability: 0.506
NCI-H838; first compound 1.265 µM
  relative viability: 0.447
NCI-H2405; first compound 0.04 µM
  relative viability: 0.458
NCI-H2405; first compound 0.1265 µM
  relative viability: 0.543
NCI-H2405; first compound 0.4 µM
  relative viability: 0.383
NCI-H2405; first compound 1.265 µM
  relative viability: 0.408
HCC-78; first compound 0.04 µM
  relative viability: 0.231
HCC-78; first compound 0.1265 µM
  relative viability: 0.263
HCC-78; first compound 0.4 µM
  relative viability: 0.179
HCC-78; first compound 1.265 µM
  relative viability: 0.168
ABC-1; first compound 0.04 µM
  relative viability: 0.673
ABC-1; first compound 0.1265 µM
  relative viability: 0.596
ABC-1; first compound 0.4 µM
  relative viability: 0.689
ABC-1; first compound 1.265 µM
  relative viability: 0.757
EMC-BAC-2; first compound 0.04 µM
  relative viability: 0.555
EMC-BAC-2; first compound 0.1265 µM
  relative viability: 0.557
EMC-BAC-2; first compound 0.4 µM
  relative viability: 0.537
EMC-BAC-2; first compound 1.265 µM
  relative viability: 0.554
HCC-15; first compound 0.04 µM
  relative viability: 0.736
HCC-15; first compound 0.1265 µM
  relative viability: 0.839
HCC-15; first compound 0.4 µM
  relative viability: 0.755
HCC-15; first compound 1.265 µM
  relative viability: 0.514
COR-L23; first compound 0.04 µM
  relative viability: 0.775
COR-L23; first compound 0.1265 µM
  relative viability: 0.9
COR-L23; first compound 0.4 µM
  relative viability: 0.798
COR-L23; first compound 1.265 µM
  relative viability: 0.425
HCC-366; first compound 0.04 µM
  relative viability: 0.136
HCC-366; first compound 0.1265 µM
  relative viability: 0.192
HCC-366; first compound 0.4 µM
  relative viability: 0.138
HCC-366; first compound 1.265 µM
  relative viability: 0.153
HARA; first compound 0.04 µM
  relative viability: 0.31
HARA; first compound 0.1265 µM
  relative viability: 0.604
HARA; first compound 0.4 µM
  relative viability: 0.449
HARA; first compound 1.265 µM
  relative viability: 0.545
NCI-H2228; first compound 0.04 µM
  relative viability: 0.58
NCI-H2228; first compound 0.1265 µM
  relative viability: 0.549
NCI-H2228; first compound 0.4 µM
  relative viability: 0.26
NCI-H2228; first compound 1.265 µM
  relative viability: 0.274
NCI-H2009; first compound 0.04 µM
  relative viability: 0.793
NCI-H2009; first compound 0.1265 µM
  relative viability: 0.836
NCI-H2009; first compound 0.4 µM
  relative viability: 0.788
NCI-H2009; first compound 1.265 µM
  relative viability: 0.586
NCI-H2023; first compound 0.04 µM
  relative viability: 0.249
NCI-H2023; first compound 0.1265 µM
  relative viability: 0.302
NCI-H2023; first compound 0.4 µM
  relative viability: 0.228
NCI-H2023; first compound 1.265 µM
  relative viability: 0.224
NCI-H23; first compound 0.04 µM
  relative viability: 0.532
NCI-H23; first compound 0.1265 µM
  relative viability: 0.519
NCI-H23; first compound 0.4 µM
  relative viability: 0.43
NCI-H23; first compound 1.265 µM
  relative viability: 0.428
SK-LU-1; first compound 0.04 µM
  relative viability: 0.559
SK-LU-1; first compound 0.1265 µM
  relative viability: 0.604
SK-LU-1; first compound 0.4 µM
  relative viability: 0.538
SK-LU-1; first compound 1.265 µM
  relative viability: 0.418
NCI-H2126; first compound 0.04 µM
  relative viability: 0.551
NCI-H2126; first compound 0.1265 µM
  relative viability: 0.486
NCI-H2126; first compound 0.4 µM
  relative viability: 0.497
NCI-H2126; first compound 1.265 µM
  relative viability: 0.46
A-427; first compound 0.04 µM
  relative viability: 0.836
A-427; first compound 0.1265 µM
  relative viability: 0.738
A-427; first compound 0.4 µM
  relative viability: 0.723
A-427; first compound 1.265 µM
  relative viability: 0.738
NCI-H1993; first compound 0.04 µM
  relative viability: 0.823
NCI-H1993; first compound 0.4 µM
  relative viability: 0.742
NCI-H1993; first compound 1.265 µM
  relative viability: 0.789
